Measured values published in patent US20240033244A1, “COMPOSITIONS AND METHODS FOR INHIBITING YTHDF1” (SHANGHAI INSTITUTE OF MATERIA MEDICA, CHINESE ACADEMY OF …, priority 2020, published 2024).

Columns and labels:
B16-OVA tumor = B16-OVA tumor growth in Ythdf1F/F and CD11ccreYthdf1F/F mice; type: in vivo, mouse; conditions: 2×10^6 B16-OVA, 10 μM SAA day 9 and day 11
Method: For B6 mice tumor growth, 5×10^5 B16-OVA or 1×10^6 E.G7-OVA tumor cells were inoculated subcutaneously (s.c.) into the flank of mice. Tumor length (a) and width (b) was measured every two days and tumor volume was calculated by the formula ab^2/2. For the inhibitor treatment, 10 μM SAA or DMSO was injected intraperitoneally (i.p.) on day 9 and 11 after tumor inoculation. For other mice model (rag1^−/− and Ythdf1 conditional knockout), times and dose of inhibitor treatment was the same. For α-PD-L1 and SAA combination treatment, 5×10^5 B16-OVA tumor cells were inoculated subcutaneously into the flank of mice. 100 μg α-PD-L1 antibody (clone 10F.9G2) or rat immunoglobulin were administered at day 9 after tumor inoculation. 10 μM SAA or DMSO was administered in the same way on day 9 and 11 after tumor injection.
To determine whether DCs are the major targets of SAA, Ythdf1^F/F and CD11c^creYthdf1^F/F mice were injected subcutaneously with 2×10^6 B16-OVA cells. Then, 10 μM SAA was injected to each mouse on day 9 and day 11, and tumor growth was monitored.

[1] = tested on: classical DCs in draining lymph node; assay: Ex vivo direct-priming by DCs sorted from draining lymph node of treated mice with OT-I peptide; type: in vivo, mouse; conditions: four DC subtypes from SAA treated mice, 1 μg/mL OT-I peptide
Method: For in vitro cross-presentation study, mature FLT3L-DCs were harvested on day 9 and purified by EasySep Mouse CD11 c Positive Selection Kit II, then treated with 10 μM SAA or DMSO in IMDM medium (contain 10% bovine and 100 ng/mL FLT3L) for 10 h. […] Then antigen-obtained DCs were purified and co-cultured with naïve T cells from OT-1 mice at a ratio of 1:10 for 96 h. The co-culture medium was 1640 RPMI contains 10% fetal bovine with or without 1 μg/mL OT-1 (OVA 257-264) peptide. For ex vivo DCs cross-presentation assay, four types of DCs (migration CD11b DC, migration CD103′ DC, resident CD11b DC and resident CD8^+ DC) were sorted in draining lymph node from SAA treated B16-OVA bearing mice at day 12. These DCs were co-cultured with OT-1 naïve T cells in the ratio of 1:10 for 96 hours with or without OT-1 peptide. Supernatant IFN-γ production was detected via CBA assay.
Dendritic cells can activate T cells through cross-priming and/or direct-priming. In direct-priming process, DCs could stimulate T cells via surface co-stimulatory molecules such as CD80/CD86 or cytokines related with T cell activation. […] IFN-γ production was assessed by IFN-γ cytometric bead array. […] Then, IFN-γ production was assessed by IFN-γ cytometric bead array.

B16-OVA tumor cells = assay: B16-OVA tumor cell proliferation in vitro; type: cell-based, mouse; conditions: 5×10^4 B16-OVA cells, various doses, 12 hours
Method: In a further experiment, tumor cells were treated with SAA in vitro. Briefly, 5×10^4 B16-OVA tumor cells were treated with SAA of various doses respectively in a 96-well plate. Cell number was counted 12 hours after said SAA treatment.

YTHDF1 (361-559) = target: T1, YTHDF1 (361-559) (Homo sapiens, UniProt Q9BYJ9); assay: Hydrogen deuterium exchange mass spectrometry (HDX MS); type: binding; conditions: HDX 10 s to 14400 s; many peptides HDX variation over 5%
T1 construct: GST (N, cleaved yes); made in house; host or cells: E. coli BL21 (DE3)
T1 sequence (Q9BYJ9 with tags, fused parts or gaps): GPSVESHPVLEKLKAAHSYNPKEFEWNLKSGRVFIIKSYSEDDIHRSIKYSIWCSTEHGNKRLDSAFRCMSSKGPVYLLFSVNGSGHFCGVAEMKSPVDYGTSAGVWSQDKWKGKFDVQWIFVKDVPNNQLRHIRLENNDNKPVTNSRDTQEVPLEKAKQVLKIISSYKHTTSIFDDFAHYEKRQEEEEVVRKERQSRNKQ
Method: YTHDF1 (361-559) was incubated with the compound (e.g., SAA) at 4° C. overnight before the measurement. In hydrogen deuterium exchange mass spectrometry (HDX MS), the hydrogen atoms of YTHDF1 (361-559)-apo and YTHDF1 (361-559)-SAA were exchanged with deuterium for 0 s, 10 s, 30 s, 60 s, 1200 s, 3600 s and 14400 s respectively at 10° C. in buffer containing 20 mM Hepes (pH 7.4), 200 mM NaCl and D2O. And the reactions were stopped at 0.5° C. using buffer containing 4 M guanidine hydrochloride, 0.5 M TCEP and 100 mM citric acid (pH 2.3). After deuterium label reaction, the samples were digested at 4° C. by pepsin immobilized on the column in order to obtain peptides of the samples. These peptides were next separated by HPLC and analyzed via mass spectrometry, respectively. HDX MS data was analyzed in HDExaminer software (v2.4.1) and +5% were set as the threshold to pick out those peptides with significant change.
Then, hydrogen deuterium exchange mass spectrometry (HDX MS) experiment was conducted, to determine the binding sites of SAA on YTHDF1.

B16-OVA melanoma = assay: B16-OVA tumor growth in wild-type mice; type: in vivo, mouse
FLT3L-DCs = assay: FLT3L-DC direct-priming of OT-I T cells in vitro with OT-I peptide; type: cell-based, mouse; conditions: 1 μg/mL OT-I peptide
Method: Then antigen-obtained DCs were purified and co-cultured with naïve T cells from OT-1 mice at a ratio of 1:10 for 96 h. The co-culture medium was 1640 RPMI contains 10% fetal bovine with or without 1 μg/mL OT-1 (OVA 257-264) peptide. For ex vivo DCs cross-presentation assay, four types of DCs (migration CD11b DC, migration CD103′ DC, resident CD11b DC and resident CD8^+ DC) were sorted in draining lymph node from SAA treated B16-OVA bearing mice at day 12. These DCs were co-cultured with OT-1 naïve T cells in the ratio of 1:10 for 96 hours with or without OT-1 peptide. Supernatant IFN-γ production was detected via CBA assay.
Dendritic cells can activate T cells through cross-priming and/or direct-priming. In direct-priming process, DCs could stimulate T cells via surface co-stimulatory molecules such as CD80/CD86 or cytokines related with T cell activation. To evaluate whether the direct priming function was also affected after SAA administration, bone marrow derived cells (wildtype or Ythdf1 gene deficient) were cultured with FLT3L for 9 days to get FLT3L-DC and these DCs were treated with 10 μM SAA for 12 hours, then, FLT3L-DCs were co-cultured with necrotic B16-OVA tumor cell for 6 hours. […] IFN-γ production was assessed by IFN-γ cytometric bead array. […] Then, IFN-γ production was assessed by IFN-γ cytometric bead array.

SMILES: O=C(/C=C/c1ccc(O)c(O)c1/C=C/c1ccc(O)c(O)c1)O[C@H](Cc1ccc(O)c(O)c1)C(=O)O [SAA, Salvianolic Acid A]
- tumor growth (B16-OVA tumor; CD11ccreYthdf1F/F mice): no further evident effect of tumor control
- tumor growth (B16-OVA tumor; Ythdf1F/F mice): showed analogous situation as observed in CD11c^creYthdf1^F/F mice
- direct-priming capacity of DC subtypes (IFN-γ production) [1]: 3 of the 4 DC subtypes showed improved direct-priming capacity
- proliferation of tumor cells (cell number) (B16-OVA tumor cells): not affected
- conformational change of YTHDF1 on binding (deuterium uptake) (YTHDF1 (361-559)): significant conformational changes
- tumor growth versus DMSO (B16-OVA melanoma; 5×10^5 B16-OVA in C57BL/6 mice, 10 μM i.v. 9 days after implantation (FIG. 19)): tumor growth was much slower
- tumor growth versus control (B16-OVA melanoma; 5×10^5 B16-OVA s.c., 10 μM SAA on day 9 and 11): tumor growth was much slower
- FLT3L-DC direct-priming function (IFN-γ production) (FLT3L-DCs): could not enhance
